The target of one assay is T1, DltA enzyme (Streptococcus agalactiae serotype III, UniProt Q8VM67).
T1 construct: His-tag (from pET100 vector) (N); made in house; host or cells: E. coli BL21 (DE3) Star
T1 sequence (Q8VM67 1-511): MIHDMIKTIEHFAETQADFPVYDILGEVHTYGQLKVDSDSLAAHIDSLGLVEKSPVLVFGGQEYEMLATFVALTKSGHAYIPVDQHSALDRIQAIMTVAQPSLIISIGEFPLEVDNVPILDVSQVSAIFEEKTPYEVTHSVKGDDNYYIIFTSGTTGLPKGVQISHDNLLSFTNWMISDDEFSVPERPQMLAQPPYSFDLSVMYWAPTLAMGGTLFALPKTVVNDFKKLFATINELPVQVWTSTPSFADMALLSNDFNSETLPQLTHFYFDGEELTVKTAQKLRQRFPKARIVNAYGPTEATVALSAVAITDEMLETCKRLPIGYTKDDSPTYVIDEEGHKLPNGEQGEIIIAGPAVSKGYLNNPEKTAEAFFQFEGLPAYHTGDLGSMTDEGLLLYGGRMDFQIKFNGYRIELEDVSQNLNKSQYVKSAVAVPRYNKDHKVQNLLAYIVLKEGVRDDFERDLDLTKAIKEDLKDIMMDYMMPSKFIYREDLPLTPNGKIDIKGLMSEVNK
Put plainly: DltA HTS assays (luminescent / fluorescent), inhibition of DltA enzymatic activity in vitro. Format: biochemical, S. agalactiae. Particulars: Table 1; DltA inhibition, HTS assays of method 1; read-out: IC50. An excerpt: The compounds effect on DltA enzyme has been based on the measure of the inhibition of DltA activity in vitro.
To this end, a recombinant protein Dlta was expressed and purified after cloning of the gene of S. agalatiae as described below:
Methods 1: DltA HTS Assays
The assay described below makes use of dithiothreitol (DTT) instead of DltC as reactive thiol in the catalyzed reaction. In fact, the inventors have shown that DTT, but also Coenzyme A and N-Acetylcysteamine are all thiols able to replace efficiently DltC. In addition, contrary to the prior art, radioactivity is not used: all the assays are based either on luminescent ATP detection, or on fluorescent AMP detection. They are easily amenable to miniaturized formats and fast readouts as required by HTS.
The assay buffer “AB” contains 50 mM Hepes pH8.0, 10 mM MgCl2, 50 mM KCl, 0.012% Triton-X100. The following components are added in a white polystyrene Costar plate up to a final volume of 30 μL: 3 μL DMSO, or inhibitor dissolved in DMSO and 27 μL DltA enzyme and DTT in AB. After 30 min of pre-incubation at room temperature, 30 μL of Substrates mix in AB are added in each well to a final volume of 60 μL. This reaction mixture is then composed of 10 nM DltA (produced in house from S. agalactiae), 0.5 mM D-Alanine (Sigma), 0.5 μM ATP (Sigma) and 1 mM DTT (Biochemika) in assay buffer. After 90 min of incubation at room temperature, 30 μL of the revelation mix are added to a final volume of 90 μL, including the following constituents at the respective final concentrations: 2 nM luciferase (Sigma), 30 μM D-luciferin (Sigma), 100 μM N-acetylcysteamine (Aldrich). Luminescence intensity is immediately measured on an Analyst-HT (Molecular Devices) and converted into inhibition percentages. For IC50 (Inhibitory Concentration 50%) determinations, the inhibitor is added at 6 to 10 different concentrations, and the related inhibitions are fitted to a classical langmuir equilibrium model using XLFIT (IDBS).
The assay buffer “AB” contains 50 mM Hepes pH8.0, 10 mM MgCl2, 50 mM KCl, 0.012% Triton-X100. The following components are added in a black polystyrene Costar plate up to a final volume of 50 μL: 5 μL DMSO, or inhibitor dissolved in DMSO and 45 μL DltA enzyme and DTT in AB. After 30 min of pre-incubation at room temperature, 50 μL of Substrates-revelation mix in AB are added in each well to a final volume of 100 μL. This reaction mixture is then composed of 5 nM DltA (produced in house from S. agalactiae), 0.5 mM D-Alanine (Sigma), 10 μM ATP (Sigma), 1 mM DTT (Biochemika), 10 nM Adenylate kinase (produced in house), 5 u/mL Pyruvate Kinase (Sigma), 50 μM phosphoenolpyruvate (Sigma), 5 u/mL Lactate deshydrogenase (Sigma) and 3 μM NADH (Sigma) in assay buffer. Fluorescence intensity of NADH (λex=360 nm, λem=520 nm) is immediately measured kinetically by a Fluostar Optima (BMG). Inhibition percentages are derived from fitted initial velocities. For IC50 determinations, the inhibitor is added at 6 to 10 different concentrations, and the related inhibitions are fitted to a classical langmuir equilibrium model using XLFIT (IDBS). FIG. 2 represents the data obtained using this method.
The capacity of compounds to inhibit DltA enzymatic activity was assessed using the DltA HTS assays described in method 1.

Assay [1] deals with S. agalactiae NEM316 WT. Put plainly: Minimal Antivirulent Concentration (MAC) assay, sensitization of bacteria to colistin. Format: cell-based. The following applies: S. agalactiae wt strain, in presence of colistin 32 μg/ml, overnight, no visible growth. An excerpt: The readout of the assay is called Minimum antivirulent concentration (MAC) and represents the minimal dose of compound for which no visible bacterial growth is observed in the presence of colistin at a subinhibitory concentration. MAC assay is described in Method 3 hereinafter.
Method 3: Assay for Minimal Antivirulent Concentration (MAC) and Minimal Inhibitory Concentration (MIC): Determination of Compounds Activity for Sensitization of Bacteria to Cationic Peptide (Colistin)
The Gram positive bacteria S. agalactiae NEM316 WT are grown on tryptic soy agar (TSA) broth over-night at 37° C. with air enriched with 5% CO2. Ten to fifteen colonies isolated from over-night growth on agar are then added to 10 ml of TS media to produce a standard suspension of organisms. This pre-culture is incubated at 37° C. with constant shaking during two to three hours to reach the exponential phase. This suspension is diluted to obtain a final inoculum of 1E+04 CFU/ml. Viable counts are obtained by plating 10 to 1000-fold dilutions of the suspension on TSA.
According to our standardized conditions, the final volume in the well is 100 μl in a 96-well microplate. Compounds are tested in a range of 1 to 32 μg/mL. Each well contains 2 μl of compound diluted in 100% DMSO, 48 μl of TS (microplate without colistin) or 48 μl of colistin in TS (final concentration of colistin is 32 μg/ml for S. agalactiae), then […] (final inoculum of 1 E+04 CFU/ml). Final concentration of DMSO is 2%. Positive growth control wells for each organism are prepared with and without colistin and DMSO 2% final concentration. S. agalactiae NEM316 Δdlt is used in control wells to verify the effect of the colistin on a sensitive strain.
The microplates are then incubated overnight at 37° C. with 5% CO2. Visible bacterial growth is finally quantified by unaided eye.
The MAC of each compound is derived from the experiment in presence of colistin and is defined as the minimal concentration of compound for which no bacterial visible growth is observed.

In assay [2] the test system is S. agalactiae NEM316 WT. The assay is described as follows: Minimal Inhibitory Concentration (MIC) assay, absence of colistin. Format: cell-based. Particulars: Streptococcus agalactiae, NEM316WT.
The test system of assay [3] is S. agalactiae strain NEM316. The assay is described as follows: Experimental model of systemic infection in mice, organ bacteraemia at 48 h. Format: in vivo. The following applies: BALB/c mice, i.v. infection, compound intraperitoneal immediately after infection, spleen bacteraemia 48 h. As to the method:
The effect of DltA inhibitors on the bacteria during an infection was assessed by injecting the molecules at different doses in group of mice that have received an infective dose of bacteria.
Description of Experimental Models Used to Assess the Efficacy of Inhibitors In Vivo:
Briefly, in vivo studies were performed using 4-5-week-old female BALB/c@Rj nice. S. agalactiae strain NEM316 bacteria were grown to exponential phase in broth culture. 200 μl of a bacterial suspension of 3.10^7 CFU/ml were administered by intravenous injection to groups of six mice (6.10^6 CFU/mouse). Exact inoculums counts were determined by plating 10-fold dilutions of the suspension on TH agar plates immediately after inoculation.
The compounds to be assessed are dissolved and diluted to obtain different concentration in a solution containing solutol; and 400 μl of each compound solution is injected intraperinonaly immediately after infection of the mouse. […]
The antibacterial effect obtained with different concentrations of compounds is measured by the level of bacteraemia observed at 48 H.
The graphs represent the average value of the organ bacteremia that is determined by the number of UFC/mg of organs (spleen) at 48 h post infection, obtained for each group of mice that have received different concentration of compounds (expressed in mg/kg). […]

The subject of assay [4] is S. agalactiae strain NEM316. The assay is described as follows: Colistin activity on wild type S. agalactiae. Format: cell-based. From the text: (§1) The peptide used was colistin which mimicks the effect of antibacterial cationic peptide of innate immunity. In common with other polymixins, colistin is rapidly bactericidal and exerts its effect by acting as a cationic detergent, causing disruption of the integrity of the bacterial cell membrane, with leakage of intracellular contents and cell death.

The test system of another assay is S. aureus strain 54.316. The assay is described as follows: Colistin activity on S. aureus. Format: cell-based.
Excerpt: as §1

In assay [5] the test system is dltA defective mutant of S. agalactiae. Put plainly: Colistin activity on dltA defective mutant. Format: cell-based.
Excerpt: as §1

Setting [6] is: S. agalactiae wt strain, absence of colistin, overnight, no visible growth, read-out: MIC SAG wt.

Read-outs that look alike come from different tables or passages of the source.

Regarding `OCCCNc1nc2cc(C(F)(F)F)ccc2n2c(-c3cccc(CO)c3)cnc12` [Example 16, 3-({1-[3-(hydroxymethyl)phenyl]-7-(trifluoromethyl)imidazo[1,2-a]quinoxalin-4-yl}amino)propan-1-ol], the IC50 at DltA enzyme is 0.52 µM. For the same compound, the “MAC” value in the assay on S. agalactiae NEM316 WT [1] was 8 µg/mL. The MIC with S. agalactiae NEM316 WT [2] (setting [6]) is greater than 32 µg/mL.

As to `OCCCNc1nc2cc(C(F)(F)F)ccc2n2c(-c3ccn[nH]3)cnc12` [Example 19, 3-{[1-(1H-pyrazol-5-yl)-7-(trifluoromethyl)imidazo[1,2-a]quinoxalin-4-yl]amino}propan-1-ol], the 50% inhibitory concentration (IC50) at DltA enzyme turned out to be 0.009 µM. Also, the “MAC” value in the assay on S. agalactiae NEM316 WT [1] came to 2 µg/mL. Further, the MIC in the assay on S. agalactiae NEM316 WT [2] (setting [6]) was greater than 32 µg/mL. Also, the effective concentration in assay [3] is 10 mg/kg.

For the compound `OCCCNc1nc2cc(C(F)(F)F)ccc2n2c(-c3cnn[nH]3)cnc12` [Example 35, 3-{[1-(1H-1,2,3-triazol-5-yl)-7-(trifluoromethyl)imidazo[1,2-a]quinoxalin-4-yl]amino}propan-1-ol], on DltA enzyme, the half-maximal inhibitory concentration (IC50) is 0.27 µM. In the assay with S. agalactiae NEM316 WT [1], the “MAC” value was found to be 2 µg/mL. In addition, in the assay on S. agalactiae NEM316 WT [2] (read-out: MIC SAG wt (μg/ml)), the MIC was greater than 32 µg/mL.

Regarding `CC(C)(C)c1cc(-c2cnc3c(NCCCO)nc4cc(C(F)(F)F)ccc4n23)[nH]n1` [Example 36, 3-({1-[3-tert-butyl-1H-pyrazol-5-yl]-7-(trifluoromethyl)imidazo[1,2-a]quinoxalin-4-yl}amino)propan-1-ol], the 50% inhibitory concentration (IC50) at DltA enzyme is 0.049 µM. In addition, the “MAC” value with S. agalactiae NEM316 WT [1] was determined as 4 µg/mL. For the same compound, the MIC with S. agalactiae NEM316 WT [2] (setting [6]) is greater than 32 µg/mL.

In the case of `Cc1cc(-c2cnc3c(NCCCO)nc4cc(C(F)(F)F)ccc4n23)[nH]n1` [Example 39, 3-({1-[3-methyl-1H-pyrazol-5-yl]-7-(trifluoromethyl)imidazo[1,2-a]quinoxalin-4-yl}amino)propan-1-ol], the IC50 on DltA enzyme is 0.0135 µM. The “MAC” value with S. agalactiae NEM316 WT [1] stood at 8 µg/mL. Moreover, the MIC in the assay on S. agalactiae NEM316 WT [2] (setting [6]) is greater than 32 µg/mL.

Turning to `CCOC(=O)c1cc(-c2cnc3c(NCCCO)nc4cc(C(F)(F)F)ccc4n23)[nH]n1` [Example 47, 5-[4-(3-Hydroxy-propylamino)-7-trifluoromethyl-imidazo[1,2-a]quinoxalin-1-yl]-1H-pyrazole-3-carboxylic acid ethyl ester], on DltA enzyme, the IC50 is 0.035 µM. In addition, the “MAC” value in the assay with S. agalactiae NEM316 WT [1] was 8 µg/mL. Besides, the MIC with S. agalactiae NEM316 WT [2] (setting [6]) was greater than 32 µg/mL.

Turning to `CNC(=O)c1cc(-c2cnc3c(NCCCO)nc4cc(C(F)(F)F)ccc4n23)[nH]n1` [Example 50, 5-{4-[(3-hydroxypropyl)amino]-7-(trifluoromethyl)imidazo[1,2-a]quinoxalin-1-yl}-N-methyl-1H-pyrazole-3-carboxamide], at DltA enzyme, the concentration for half-maximal inhibition (IC50) was determined as 0.038 µM. Besides, the “MAC” value in the assay with S. agalactiae NEM316 WT [1] was 8 µg/mL. Also, the MIC in the assay on S. agalactiae NEM316 WT [2] (setting [6]) was greater than 32 µg/mL.

Take `OCCCNc1nc2cc(OC(F)(F)F)ccc2n2c(-c3ccn[nH]3)cnc12` [Example 51, 3-{[1-(1H-pyrazol-5-yl)-7-(trifluoromethoxy)imidazo[1,2-a]quinoxalin-4-yl]amino}propan-1-ol]: the 50% inhibitory concentration (IC50) on DltA enzyme stood at 0.009 µM. Besides, in the assay with S. agalactiae NEM316 WT [1], the “MAC” value came to 2 µg/mL. Further, the MIC with S. agalactiae NEM316 WT [2] (setting [6]) was greater than 32 µg/mL.

Take colistin: the MIC (in assay [4] (S. agalactiae strain NEM316 wild type); against S. aureus strain 54.316) was no less than 1024 mg/L in each case. Moreover, the “effect on the wild type strain growth” value in assay [4] (colistin 32 μg/ml, S. agalactiae wild type) is recorded as “without effect”. Besides, the “dose that can inhibit totally the growth” value in assay [5] is 32 µg/mL.
